Test results as given in patent US20220054515A1, “COMPOSITION AND METHOD FOR PROMOTING INTESTINAL BARRIER HEALING” (Glycom A/S, priority 2018, published 2022).

Target: T1, GPR35 (Homo sapiens, UniProt Q9HC97)
T1 construct: host or cells: PathHunter GPR35 cell line
Experiment: GPR35 activation, PathHunter β-Arrestin assay (DiscoverX)
Type: cell-based
Details: β-arrestin recruitment; for activation of GPR35 (result in words): highest concentration tested 10 mM; for EC50: β-Gal enzyme fragment complementation, chemiluminescence, highest concentration 10 mM, 3× dilutions, duplicate
Experimental: Six human milk oligosaccharides (LNnT, LNT, 2′-FL, DFL, 6′-SL and 3′-SL) were screened for their ability to activate the GPR35 receptor in an in vitro assay. The screening was conducted by DiscoverX (Fremont, Calif., USA) using the PathHunter β-Arresin assay. This assay monitored the activation of GPR35 expressed in cultured cells, using Enzyme Fragment Complementation with β-galactosidase (β-Gal) as the functional reporter. […] EA was fused to […]. When the GPR35 is activated and β-Arrestin is recruited to the receptor, PK and EA complementation occurs, restoring β-Gal activity, which was measured using chemiluminescent Detection Reagents.
The GPR35 cell line was expanded from frozen stocks and cultured according to standard procedures. Cells were seeded in a total volume of 20 μl into white walled, 384-well microplates and incubated at 37° C. for the appropriate time prior to testing. All of the testings were done in duplicate.
HMO samples were shipped to DiscoverX as concentrated stocks in Phosphate Buffered saline. On the test day, a 5× compound working intermediate was prepared in PBS. Five μl of 5× sample were added to cells and incubated at room temperature for 3 to 5 hours.
Assay signal was generated through a single addition of 12.5 μl (50 v/v %) of PathHunter Detection reagent cocktail, followed by one-hour incubation at room temperature. Microplates were read following signal generation with a PerkinElmer Envision™ instrument for chemiluminescent signal detection. Zaprinast (which is known to be an activator of GPR35) was used as positive control. Dose-responses were generated by iterative 3× dilutions of the highest concentration tested (10 mM).

T1 sequence (Q9HC97 whole entry): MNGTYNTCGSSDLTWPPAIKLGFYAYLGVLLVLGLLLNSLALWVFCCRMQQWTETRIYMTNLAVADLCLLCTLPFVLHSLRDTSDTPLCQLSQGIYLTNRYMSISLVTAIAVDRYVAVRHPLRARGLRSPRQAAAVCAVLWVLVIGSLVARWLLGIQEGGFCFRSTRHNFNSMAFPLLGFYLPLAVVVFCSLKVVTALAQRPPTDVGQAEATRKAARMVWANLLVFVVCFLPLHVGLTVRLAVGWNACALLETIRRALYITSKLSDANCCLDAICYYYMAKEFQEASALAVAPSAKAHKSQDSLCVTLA

Row | Structure (SMILES) | activation of GPR35 (result in words) | EC50 [mM]
1 | CC(=O)N[C@H]1[C@H](O[C@H]2[C@@H](O)[C@@H](CO)O[C@@H](O[C@H]3[C@H](O)[C@@H](O)C(O)O[C@@H]3CO)[C@@H]2O)O[C@H](CO)[C@@H](O[C@@H]2O[C@H](CO)[C@H](O)[C@H](O)[C@H]2O)[C@@H]1O (mixture of isomers) [LNnT, lacto-N-neotetraose] | No activation | 
2 | CC(=O)N[C@H]1[C@H]([C@H](O)[C@H](O)CO)O[C@@](OC[C@H]2O[C@@H](O[C@H]3[C@H](O)[C@@H](O)[C@H](O)O[C@@H]3CO)[C@H](O)[C@@H](O)[C@H]2O)(C(=O)O)C[C@@H]1O [6′-SL, 6′-sialyllactose] |  | 6.5
3 | CC(=O)N[C@H]1[C@H](O[C@H]2[C@@H](O)[C@@H](CO)O[C@@H](O[C@H]3[C@H](O)[C@@H](O)C(O)O[C@@H]3CO)[C@@H]2O)O[C@H](CO)[C@@H](O)[C@@H]1O[C@@H]1O[C@H](CO)[C@H](O)[C@H](O)[C@H]1O (some centres unmarked) [LNT, lacto-N-tetraose] |  | 4.5

Results, then the compound that gave them:

Row | activation of GPR35 (result in words) | EC50 [mM] | Structure (SMILES)
4 | No activation |  | CC(=O)N[C@H]1[C@H]([C@H](O)[C@H](O)CO)O[C@@](O[C@H]2[C@@H](O)[C@@H](CO)O[C@@H](O[C@H]3[C@H](O)[C@@H](O)C(O)O[C@@H]3CO)[C@@H]2O)(C(=O)O)C[C@@H]1O (some centres unmarked) [3′-SL, 3′-sialyllactose]
5 | No activation |  | C[C@@H]1O[C@@H](O[C@H]2[C@H](O[C@H]3[C@H](O[C@@H]4O[C@@H](C)[C@@H](O)[C@@H](O)[C@@H]4O)[C@@H](O)C(O)O[C@@H]3CO)O[C@H](CO)[C@H](O)[C@@H]2O)[C@@H](O)[C@H](O)[C@@H]1O (some centres unmarked) [DFL, difucosyllactose]
